From patent US20220331327A1, “THE USE OF PARAXANTHINE TO IMPROVE PERFORMANCE IN VIDEO GAMERS” (priority 2021, published 2022)

Experiments:
[1] = system: healthy men and women playing video games; experiment: Profile of Mood States (POMS) during gaming; type: in vivo, human; conditions: 200 mg daily; for Tension, mean ± SD / Total Mood Disturbance (Tension + Depression + Anger + Fatigue + Confusion − Vigor), Mean ± SD / Vigor, mean ± SD / Tension, Mean of visit / Total Mood Disturbance, Mean of visit / Vigor, Mean of visit: n = 5; for Tension, Mean of visit / Total Mood Disturbance, Mean of visit / Vigor, Mean of visit: mean of 0, 1, 2 h; for Tension, Δ Baseline / Total Mood Disturbance, Δ Baseline / Vigor, Δ Baseline: versus baseline; for Tension, Δ PLA / Total Mood Disturbance, Δ PLA / Vigor, Δ PLA: versus placebo
Description: The effectiveness of study-products (paraxanthine and placebo) was assessed by measuring in-game performance, cognition during gaming (Stroop Test) and mood status during gaming (Profile of Mood States (POMS)). The POMS was completed pre-dose, after 60 minutes of gaming and immediately after completing 120 minutes of video gaming during all study visits. The POMS measured six subscales of mood, including tension-anxiety, depression-dejection, anger-hostility, vigor-activity, fatigue-inertia, and confusion-bewilderment. Subjects were asked to use a 5-point Likert scale (0=not at all, 1=a little, 2=moderately, 3=quite a bit, 4=extremely), to review a list of 65 words (feelings) and rank the degree to which they are experiencing that feeling at the moment. Since high vigor-activity scores reflect good moods or emotions, whereas low scores in the other subscales reflect a good mood or emotion, the total mood disturbance (TMD) score was computed by adding the five negative subscale scores (tension-anxiety, depression-dejection, anger-hostility, fatigue-inertia, and confusion-bewilderment) and subtracting the vigor-activity score. Higher numeric values of the TMD score indicate a greater degree of mood disturbance.

healthy subject = experiment: Video game Tetris, game performance measured by play time; type: in vivo, human; conditions: 100 mg prior to playing Tetris; one subject
Text: Each of the three games were separated by a one-week washout period. In Tetris, the player brings down blocks from the top of the screen. The player can move the blocks around, either left to right and/or you can rotate them. The blocks fall at a certain rate, but the player can make them fall faster if he/she is sure of the positioning. The game Tetris becomes more challenging the longer you play. It becomes faster the better the player performs. The player has to make the same decisions but under a higher level of pressure. Each time the player clears a line in Tetris, the player is awarded more points. Each time the pieces reach the top of the screen, the game is over. Game performance was measured by play time. The player was not allowed to press a button to increase the speed of the current piece's descent or cause the piece to drop and lock into place immediately, known as a “soft drop” and a “hard drop”, respectively.

[2] = 3 weeks, listed as paraxanthine
[3] = 6 weeks, listed as paraxanthine

`Cn1c(=O)[nH]c2ncn(C)c2c1=O` [Paraxanthine, paraxanthine] was tested, and the “Tension, mean ± SD” value ([1]; 3 weeks, 0 h) was 4.0 ± 2.8, the “Total Mood Disturbance (Tension + Depression + Anger + Fatigue + Confusion − Vigor), Mean ± SD” value (from here on “Total Mood Disturbance … Mean ± SD”) ([1]; 3 weeks, 0 h) was −6.2 ± 16.6 and the “Vigor, mean ± SD” value ([1]; 3 weeks, 0 h) was 20.4 ± 6.8. The “Tension, mean ± SD” value ([1]; 3 weeks, 1 h) was 2.0 ± 1.2, the “Total Mood Disturbance … Mean ± SD” value ([1]; 3 weeks, 1 h) was −6.8 ± 13.3 and the “Vigor, mean ± SD” value ([1]; 3 weeks, 1 h) was 18.0 ± 10.0. The “Tension, mean ± SD” value ([1]; 3 weeks, 2 h) was 2.4 ± 1.3, the “Total Mood Disturbance … Mean ± SD” value ([1]; 3 weeks, 2 h) was −6.4 ± 15.8 and the “Vigor, mean ± SD” value ([1]; 3 weeks, 2 h) was 16.4 ± 10.0. The “Tension, Mean of visit” value ([1]; 3 weeks) was 2.8, the “Total Mood Disturbance, Mean of visit” value ([1]; 3 weeks) was −6.5 and the “Vigor, Mean of visit” value ([1]; 3 weeks) was 18.3. The “Tension, mean ± SD” value ([1]; 6 weeks, 0 h) was 2.6 ± 1.8, the “Total Mood Disturbance … Mean ± SD” value ([1]; 6 weeks, 0 h) was −8.2 ± 13.8 and the “Vigor, mean ± SD” value ([1]; 6 weeks, 0 h) was 18.6 ± 8.6. For the same compound, the “Tension, mean ± SD” value ([1]; 6 weeks, 1 h) was 2.0 ± 1.0, the “Total Mood Disturbance … Mean ± SD” value ([1]; 6 weeks, 1 h) was −11.2 ± 12.4 and the “Vigor, mean ± SD” value ([1]; 6 weeks, 1 h) was 18.2 ± 9.2. The “Tension, mean ± SD” value ([1]; 6 weeks, 2 h) was 2.2 ± 1.3, the “Total Mood Disturbance … Mean ± SD” value ([1]; 6 weeks, 2 h) was −8.8 ± 13.4 and the “Vigor, mean ± SD” value ([1]; 6 weeks, 2 h) was 17.2 ± 9.8. For the same compound, the “Tension, Mean of visit” value ([1]; 6 weeks) was 2.3, the “Total Mood Disturbance, Mean of visit” value ([1]; 6 weeks) was −9.4 and the “Vigor, Mean of visit” value ([1]; 6 weeks) was 18.0. For the same compound, the “Tension, mean ± SD” value ([1]; Baseline visit, 0 h) was 5.4 ± 2.2, the “Total Mood Disturbance … Mean ± SD” value ([1]; Baseline visit, 0 h) was −2.2 ± 10.5 and the “Vigor, mean ± SD” value ([1]; Baseline visit, 0 h) was 19.2 ± 5.3. For the same compound, the “Tension, mean ± SD” value ([1]; Baseline visit, 1 h) was 5.6 ± 5.4, the “Total Mood Disturbance … Mean ± SD” value ([1]; Baseline visit, 1 h) was −2.6 ± 18.6 and the “Vigor, mean ± SD” value ([1]; Baseline visit, 1 h) was 17.4 ± 6.5. The “Tension, mean ± SD” value ([1]; Baseline visit, 2 h) was 2.8 ± 1.3, the “Total Mood Disturbance … Mean ± SD” value ([1]; Baseline visit, 2 h) was −0.4 ± 16.1 and the “Vigor, mean ± SD” value ([1]; Baseline visit, 2 h) was 13.2 ± 6.4. For the same compound, the “Tension, Mean of visit” value ([1]; Baseline visit) was 4.6, the “Total Mood Disturbance, Mean of visit” value ([1]; Baseline visit) was −1.7 and the “Vigor, Mean of visit” value ([1]; Baseline visit) was 16.6. For the same compound, the “Tension, Δ Baseline” value ([1]; 3 weeks) was −39.1%, the “Total Mood Disturbance, Δ Baseline” value ([1]; 3 weeks) was −282% and the “Vigor, Δ Baseline” value ([1]; 3 weeks) was “+10.2%”. For the same compound, the “Vigor, Δ Baseline” value [1, 2] was 10.2%, the “Tension, Δ PLA” value ([1]; 3 weeks) was −51.7% and the “Total Mood Disturbance, Δ PLA” value ([1]; 3 weeks) was −166%. For the same compound, the “Vigor, Δ PLA” value ([1]; 3 weeks) was “+28.9%”, the “Vigor, Δ PLA” value [1, 2] was 28.9% and the “Tension, Δ Baseline” value ([1]; 6 weeks) was −50.0%. The “Total Mood Disturbance, Δ Baseline” value ([1]; 6 weeks) was −453%, the “Vigor, Δ Baseline” value ([1]; 6 weeks) was “+8.4%” and the “Vigor, Δ Baseline” value [1, 3] was 8.4%. The “Tension, Δ PLA” value ([1]; 6 weeks) was −61.0%, the “Total Mood Disturbance, Δ PLA” value ([1]; 6 weeks) was −189% and the “Vigor, Δ PLA” value ([1]; 6 weeks) was “+59.3%”. The “Vigor, Δ PLA” value [1, 3] was 59.3%, the “worsening of total mood disturbance during continued gaming” value ([1]; after 3 and 6 weeks) was “an effect that was not observed in the paraxanthine group” and the “total mood disturbance, effect in words” value ([1]; after 3 and 6 weeks, compared to baseline and to placebo) was “improved total mood disturbance”. For the same compound, the “decrease of feelings of tension-anxiety compared to baseline” value ([1]; after 3 weeks) was 39.1%, the “decrease of feelings of tension-anxiety compared to placebo” value ([1]; after 3 weeks) was 51.7% and the “decrease of feelings of tension-anxiety compared to baseline” value ([1]; after 6 weeks) was 50%. For the same compound, the “decrease of feelings of tension-anxiety compared to placebo” value ([1]; after 6 weeks) was 61.0%, the “course of tension with duration of play” value ([1]; the longer the subject played) was “tension decreased in the paraxanthine group the longer the subject played” and the “gaming performance (play time), effect in words” value (healthy subject) was “increased gaming performance compared to placebo, and compared to caffeine intake”.
